Assay results taken from patent US5480893A, “Inhibitors of farnesyl protein transferase” (Merck & Co., Inc., priority 1994, dated 1996).

Legend:
[1] = target: T1, Farnesyl-protein transferase (FTase) from bovine brain (Bos taurus, UniProt P29702+P49355); test: In vitro inhibition of Ras Farnesyl Transferase; format: biochemical; details: Ras-CVLS 3.5 μM, [3H]FPP 0.25 μM, partially purified bovine brain FTase; read-out: IC50 (concentration of compound which gives 50% inhibition of FTase)
T1 construct: Farnesyl-protein transferase (FTase) from bovine brain; from tissue; host or cells: bovine brain, partially purified (DEAE-Sephacel, N-octyl agarose, Mono Q HPLC)
Experimental: In vitro inhibition of Ras Farnesyl Transferase […] Ras-CVLS at 3.5 μ[…], and the indicated compounds were incubated with this partially purified enzyme preparation. The FTase data presented below is a measurement of the ability of the test compound to inhibit Ras farnesylation in vitro. | *(IC50 is the concentration of compound which gives 50% inhibition o | FTase under the described assay conditions)

[2] = tested on: Ras farnesylation in the v-ras cell line (Ha-ras p21); test: In vivo ras farnesylation assay (v-ras cell line); format: cell-based
Experimental: In vivo ras farnesylation assay
The cell line used in this assay was the v-ras line, which expressed vital Ha-ras p21. The assay was performed essentially as described in DeClue, J. E. et. al., Cancer Reasearch 51, 712-717, (1991). Cells in 10 cm dishes at 50-75% confluency were treated with the test compound (final concentration of solvent, methanol or dimethyl sulfoxide, was 0.1%). After 4 hours at 37° C., the cells were labelled in 3 ml methionine-free DMEM supplemeted with 10% regular DMEM, 2% fetal bovine serum and 400 μCi[^35 S] methionine (1000 Ci/mmol). After an additional 20 hours, the cells were lysed in 1 ml lysis buffer (1% NP40/20 nnM HEPES, pH 7.5/5 mM MgCl2 /1 mM DTT/10 μg/ml aprotinen/2 μg/ml leupeptin/2 μg/ml antipain/0.5 mM PMSF) and the lysates cleared by centrifugation at 100,000×g for 45 min. Aliqouts of lysates containing equal numbers of acid-precipitable counts were brought to 1 ml with IP buffer (lysis buffer lacking DTT) and immunoprecipitated with the ras-specific monoclonal antibody Y13-259 (Furth, M. E. et al., J. Virol. 43, 294-304, (1982)). Following a 2 hour antibody incubation at 4° C., 200 μl of a 25% suspension of protein A-Sepharose coated with rabbit anti rat IgG was added for 45 min. […]

Ras farnesylation = details: literature; cited from earlier work

| Compound | IC50 [1] [nM] | Inhibition of Ras farnesylation in vivo (Ras farnesylation) | also measured |
| --- | --- | --- | --- |
| CC[C@H](C)[C@H](NC[C@@H](N)CS)C(=O)N[C@H](C(=O)N[C@@H](CCCO)C(=O)O)[C@@H](C)CC | 24 | – | – |
| CC[C@H](C)[C@H](NC[C@@H](NC[C@@H](N)CS)[C@@H](C)CC)C(=O)N[C@H]1CCOC1=O [N-[2(S)-(2(R)-amino-3-mercaptopropylamino)-3(S)-methylpentyl]isoleucyl-homoserine lactone] | 950 | – | inhibition at 100 µM ([2]; at 100 μM test concentration, 4 hours then additional 20 hours with [35S]methionine): 90% |
| CC[C@H](C)[C@H](NC[C@@H](NC[C@@H](N)CS)[C@@H](C)CC)C(=O)N[C@@H](CCO)C(=O)O [N-[2(S)-(2(R)-amino-3-mercaptopropylamino)-3(S)-methylpentyl]isoleucyl-homoserine] | 12 | – | Inhibition of Ras farnesylation ([2]; result in words, test concentration not printed for this compound): No Inhibition |
| CC[C@H](C)[C@H](NC[C@@H](N)CS)C(=O)N[C@H](C(=O)N[C@H]1CCCOC1=O)[C@@H](C)CC [N-[N'-(2(R)-amino-3-mercaptopropyl)isoleucyl-isoleucyl]-3(S)-aminotetrahydropyran-2-one] | 470 | – | – |
| CC[C@H](C)C(=O)O[C@H]1CCC=C2C=C[C@H](C)[C@H](CC[C@@H]3C[C@@H](O)CC(=O)O3)[C@H]21 [compactin] | – | Inhibition of Ras farnesylation in vivo has been demonstrated | – |
| CC[C@H](C)C(=O)O[C@H]1C[C@@H](C)C=C2C=C[C@H](C)[C@H](CC[C@@H]3C[C@@H](O)CC(=O)O3)[C@H]21 [lovastatin] | – | Inhibition of Ras farnesylation in vivo has been demonstrated | – |
